Measured values: ChEMBL document CHEMBL4619777, “A New Class of Dengue and West Nile Virus Protease Inhibitors with Submicromolar Activity in Reporter Gene DENV-2 Protease and Viral Replication Assays” (J Med Chem, 2020)
Activity calls are given as the source filed them.

What was measured:
Genome polyprotein [1] = target: T1, Genome polyprotein (dengue virus type 2, UniProt P29990); experiment: Inhibition of Dengue virus serotype 2 NS2B-NS3 protease expressed in Escherichia coli BL21 lambda (DE3) cells using Abz-Nle-Lys-Arg-Arg-Ser-3-(NO2)Tyr as substrate preincubated for 15 mins followed by substrate addition and measured for 15 mins by FRET assay
Genome polyprotein [2] = target: Genome polyprotein (West Nile virus, UniProt P06935); experiment: Inhibition of West Nile virus NS2B-NS3 protease expressed in Escherichia coli BL21 lambda (DE3) cells using Abz-Gly-Leu-Lys-Arg-Gly-Gly-3-(NO2)Tyr as substrate preincubated for 15 mins followed by substrate addition measured for 15 mins by fluorimetric analysis
[3] = Cytotoxicity against human HeLa cells assessed as reduction in cell viability measured after 24 hrs by celltiter-blue assay; assay type: cell-based
dengue virus type 2 [4] = experiment: Antiviral activity against DENV2 infected in human HuH7 cells assessed as reduction in virus titer at 12.5 uM measured after 48 hrs relative to control; assay type: functional; details: Huh-7, 48 h
[5] = Permeability of the compound assessed as drug level in donor plate at 200 uM measured after 5 hrs at pH 7.4 by PAMPA; assay type: ADME; details: pH 7.4, 5 h
Huh-7 = experiment: Cytotoxicity against human HuH7 cells assessed as reduction in cell viability at 12 uM measured after 48 hrs by celltiter-blue assay; assay type: cell-based; details: huh-7, 48 h
Trypsin [6] = target: T2, Trypsin (Homo sapiens, UniProt P07477+P07478+P35030); experiment: Inhibition of trypsin (unknown origin) at 50 uM using Boc-Val-Pro-Arg-AMC as substrate preincubated for 15 mins followed by substrate addition and measured for 15 mins by fluorimetric assay relative to control; assay type: protein assay; details: for inhibition (INH): 0.25 h, 50 µM; for inhibition at 0.25 h, 50 µM: trypsin (unknown origin), probe Boc-Val-Pro-Arg-AMC
Genome polyprotein [7] = target: T1, Genome polyprotein; experiment: Inhibition of Dengue virus serotype 2 NS2B-NS3 protease transfected in human HeLa cells measured after 24 hrs by Renilla-luciferase reporter gene assay; assay type: cell-based
[8] = target: Genome polyprotein (dengue virus type 2) (UniProt P29990); experiment: Inhibition of Dengue virus serotype 2 NS2B-NS3 protease transfected in human HeLa cells at 12.5 uM measured after 24 hrs by Renilla-luciferase reporter gene assay relative to control; assay type: cell-based
[9] = target: Genome polyprotein (West Nile virus) (UniProt P06935); experiment: Inhibition of West Nile virus NS2B-NS3 protease expressed in Escherichia coli BL21 lambda (DE3) cells at 50 uM using Abz-Gly-Leu-Lys-Arg-Gly-Gly-3-(NO2)Tyr as substrate preincubated for 15 mins followed by substrate addition measured for 15 mins by fluorimetric analysis relative to control
Prothrombin = Prothrombin (Homo sapiens, UniProt P00734); experiment: Inhibition of thrombin (unknown origin) at 25 uM using Boc-Val-Pro-Arg-AMC as substrate preincubated for 15 mins followed by substrate addition and measured for 15 mins by fluorimetric assay; details: 0.25 h
dengue virus type 2 [10] = experiment: Antiviral activity against DENV2 infected in human HuH7 cells assessed as reduction in virus titer measured after 48 hrs; assay type: functional, organism-based; details: Huh-7, 48 h
[11] = Permeability of the compound at 200 uM measured after 5 hrs at pH 7.4 by PAMPA; assay type: ADME; details: read-out: permeability
[12] = Permeability of the compound assessed as mass retention at 200 uM measured after 5 hrs at pH 7.4 by PAMPA; assay type: ADME; details: pH 7.4, 5 h
[13] = Permeability of the compound assessed as drug level in acceptor plate at 200 uM measured after 5 hrs at pH 7.4 by PAMPA; assay type: ADME; details: pH 7.4, 5 h
[14] = target: Genome polyprotein (dengue virus type 2) (UniProt P29990); experiment: Inhibition of Dengue virus serotype 2 NS2B-NS3 protease expressed in Escherichia coli BL21 lambda (DE3) cells at 50 uM using Abz-Nle-Lys-Arg-Arg-Ser-3-(NO2)Tyr as substrate preincubated for 15 mins followed by substrate addition and measured for 15 mins by FRET assay relative to control
[15] = target: Genome polyprotein (dengue virus type 2) (UniProt P29990); experiment: Competitive inhibition of Dengue virus serotype 2 NS2B-NS3 protease expressed in Escherichia coli BL21 lambda (DE3) cells using varying levels of Abz-Nle-Lys-Arg-Arg-Ser-3-(NO2)Tyr as substrate by Cheng-Prusoff plot analysis
Trypsin [16] = target: T2, Trypsin; experiment: Inhibition of trypsin (unknown origin) using Boc-Val-Pro-Arg-AMC as substrate preincubated for 15 mins followed by substrate addition and measured for 15 mins by fluorimetric assay; assay type: protein assay
[17] = target: Genome polyprotein (West Nile virus) (UniProt P06935); experiment: Competitive inhibition of West Nile virus NS2B-NS3 protease expressed in Escherichia coli BL21 lambda (DE3) cells using varying levels of Abz-Gly-Leu-Lys-Arg-Gly-Gly-3-(NO2)Tyr as substrate by Cheng-Prusoff plot analysis

Sequence of Genome polyprotein (West Nile virus) (P06935 whole entry): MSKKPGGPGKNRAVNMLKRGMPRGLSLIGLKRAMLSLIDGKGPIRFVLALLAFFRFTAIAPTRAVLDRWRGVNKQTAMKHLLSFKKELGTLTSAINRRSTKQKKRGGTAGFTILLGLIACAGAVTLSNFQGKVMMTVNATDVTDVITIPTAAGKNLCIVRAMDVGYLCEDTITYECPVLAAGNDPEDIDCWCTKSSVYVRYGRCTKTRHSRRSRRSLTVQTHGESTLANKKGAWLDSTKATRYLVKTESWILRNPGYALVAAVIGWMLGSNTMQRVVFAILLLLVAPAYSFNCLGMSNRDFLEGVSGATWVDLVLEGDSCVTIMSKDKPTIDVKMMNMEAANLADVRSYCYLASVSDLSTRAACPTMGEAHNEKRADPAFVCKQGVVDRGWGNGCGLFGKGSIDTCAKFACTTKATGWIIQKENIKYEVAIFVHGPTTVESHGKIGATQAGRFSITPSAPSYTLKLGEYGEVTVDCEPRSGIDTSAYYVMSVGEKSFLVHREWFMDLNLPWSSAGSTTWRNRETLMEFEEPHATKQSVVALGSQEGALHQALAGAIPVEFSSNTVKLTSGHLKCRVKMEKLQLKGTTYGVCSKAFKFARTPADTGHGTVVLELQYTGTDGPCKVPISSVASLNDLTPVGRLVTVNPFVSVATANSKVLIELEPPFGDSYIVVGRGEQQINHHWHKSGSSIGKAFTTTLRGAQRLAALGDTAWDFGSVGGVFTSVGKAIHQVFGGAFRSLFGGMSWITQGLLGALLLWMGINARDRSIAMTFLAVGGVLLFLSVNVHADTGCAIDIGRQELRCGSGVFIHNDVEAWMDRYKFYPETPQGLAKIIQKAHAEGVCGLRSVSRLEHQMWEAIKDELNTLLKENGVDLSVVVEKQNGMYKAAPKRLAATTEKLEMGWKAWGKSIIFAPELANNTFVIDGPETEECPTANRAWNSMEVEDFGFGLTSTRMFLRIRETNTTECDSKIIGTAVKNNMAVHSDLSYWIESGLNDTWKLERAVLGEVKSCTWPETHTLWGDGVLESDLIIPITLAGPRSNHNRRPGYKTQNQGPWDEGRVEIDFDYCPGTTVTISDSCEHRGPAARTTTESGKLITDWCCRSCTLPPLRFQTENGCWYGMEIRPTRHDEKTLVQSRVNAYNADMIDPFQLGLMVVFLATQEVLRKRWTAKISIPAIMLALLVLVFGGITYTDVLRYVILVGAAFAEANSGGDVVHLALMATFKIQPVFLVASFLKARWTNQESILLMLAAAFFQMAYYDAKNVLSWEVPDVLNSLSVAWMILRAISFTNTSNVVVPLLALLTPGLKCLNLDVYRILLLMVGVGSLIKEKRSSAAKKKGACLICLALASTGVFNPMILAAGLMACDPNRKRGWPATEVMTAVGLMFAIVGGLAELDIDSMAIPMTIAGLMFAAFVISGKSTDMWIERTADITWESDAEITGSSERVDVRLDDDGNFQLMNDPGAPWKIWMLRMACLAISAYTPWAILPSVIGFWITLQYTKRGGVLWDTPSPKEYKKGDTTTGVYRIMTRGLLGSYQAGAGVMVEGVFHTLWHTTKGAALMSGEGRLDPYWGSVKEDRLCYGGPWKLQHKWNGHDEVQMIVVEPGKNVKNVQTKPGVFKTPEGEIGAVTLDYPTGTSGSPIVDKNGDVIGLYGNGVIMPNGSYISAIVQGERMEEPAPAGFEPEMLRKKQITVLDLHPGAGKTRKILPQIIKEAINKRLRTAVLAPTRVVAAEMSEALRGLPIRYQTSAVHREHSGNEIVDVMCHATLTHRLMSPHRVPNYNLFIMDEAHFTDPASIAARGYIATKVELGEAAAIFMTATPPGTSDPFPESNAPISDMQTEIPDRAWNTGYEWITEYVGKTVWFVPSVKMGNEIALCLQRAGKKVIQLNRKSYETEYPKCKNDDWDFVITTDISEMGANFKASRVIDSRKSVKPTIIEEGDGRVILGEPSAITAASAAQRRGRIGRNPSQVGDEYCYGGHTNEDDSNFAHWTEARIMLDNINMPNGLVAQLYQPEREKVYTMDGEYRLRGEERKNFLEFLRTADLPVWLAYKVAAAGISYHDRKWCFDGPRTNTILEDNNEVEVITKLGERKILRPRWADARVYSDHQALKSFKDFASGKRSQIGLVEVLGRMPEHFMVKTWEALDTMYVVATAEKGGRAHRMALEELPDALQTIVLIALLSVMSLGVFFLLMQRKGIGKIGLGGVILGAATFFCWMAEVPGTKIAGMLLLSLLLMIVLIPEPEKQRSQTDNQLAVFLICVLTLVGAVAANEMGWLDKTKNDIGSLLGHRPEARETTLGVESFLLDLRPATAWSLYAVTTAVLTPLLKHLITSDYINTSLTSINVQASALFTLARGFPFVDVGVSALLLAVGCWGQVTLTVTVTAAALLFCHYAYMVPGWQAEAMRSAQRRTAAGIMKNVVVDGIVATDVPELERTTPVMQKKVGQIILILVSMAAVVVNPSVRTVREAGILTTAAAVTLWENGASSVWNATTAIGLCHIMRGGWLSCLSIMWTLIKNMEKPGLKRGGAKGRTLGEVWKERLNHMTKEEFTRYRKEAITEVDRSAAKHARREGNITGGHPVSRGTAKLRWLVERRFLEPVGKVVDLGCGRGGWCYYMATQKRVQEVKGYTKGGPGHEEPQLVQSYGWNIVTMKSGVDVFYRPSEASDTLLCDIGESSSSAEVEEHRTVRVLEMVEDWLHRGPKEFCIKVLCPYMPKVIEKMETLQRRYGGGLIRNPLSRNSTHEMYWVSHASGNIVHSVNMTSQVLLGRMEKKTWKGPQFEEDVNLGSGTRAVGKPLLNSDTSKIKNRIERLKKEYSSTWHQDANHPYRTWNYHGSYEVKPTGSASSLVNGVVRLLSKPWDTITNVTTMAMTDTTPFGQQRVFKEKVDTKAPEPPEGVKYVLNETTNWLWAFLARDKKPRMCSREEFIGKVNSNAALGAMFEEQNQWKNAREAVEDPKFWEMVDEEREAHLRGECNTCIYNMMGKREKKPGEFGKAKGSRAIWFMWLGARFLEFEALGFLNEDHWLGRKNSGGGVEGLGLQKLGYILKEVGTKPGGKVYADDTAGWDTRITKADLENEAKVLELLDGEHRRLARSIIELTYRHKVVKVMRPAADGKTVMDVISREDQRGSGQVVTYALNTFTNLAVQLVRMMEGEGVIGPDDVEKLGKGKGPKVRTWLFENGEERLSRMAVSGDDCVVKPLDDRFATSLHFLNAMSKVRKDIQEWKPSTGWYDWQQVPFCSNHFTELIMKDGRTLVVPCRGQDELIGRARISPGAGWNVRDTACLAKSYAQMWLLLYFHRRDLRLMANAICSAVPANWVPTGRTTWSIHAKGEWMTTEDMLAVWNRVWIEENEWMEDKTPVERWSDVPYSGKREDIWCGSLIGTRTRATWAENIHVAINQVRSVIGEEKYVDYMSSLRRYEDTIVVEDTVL
Sequence of Genome polyprotein (West Nile virus, UniProt P06935) (P06935 1371-1501 limits assumed): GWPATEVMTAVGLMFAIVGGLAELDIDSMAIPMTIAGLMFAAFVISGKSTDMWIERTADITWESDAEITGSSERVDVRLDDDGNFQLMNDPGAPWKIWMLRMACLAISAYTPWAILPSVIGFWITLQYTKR
Sequence of Genome polyprotein (West Nile virus, UniProt P06935) (P06935 1502-2120 limits assumed): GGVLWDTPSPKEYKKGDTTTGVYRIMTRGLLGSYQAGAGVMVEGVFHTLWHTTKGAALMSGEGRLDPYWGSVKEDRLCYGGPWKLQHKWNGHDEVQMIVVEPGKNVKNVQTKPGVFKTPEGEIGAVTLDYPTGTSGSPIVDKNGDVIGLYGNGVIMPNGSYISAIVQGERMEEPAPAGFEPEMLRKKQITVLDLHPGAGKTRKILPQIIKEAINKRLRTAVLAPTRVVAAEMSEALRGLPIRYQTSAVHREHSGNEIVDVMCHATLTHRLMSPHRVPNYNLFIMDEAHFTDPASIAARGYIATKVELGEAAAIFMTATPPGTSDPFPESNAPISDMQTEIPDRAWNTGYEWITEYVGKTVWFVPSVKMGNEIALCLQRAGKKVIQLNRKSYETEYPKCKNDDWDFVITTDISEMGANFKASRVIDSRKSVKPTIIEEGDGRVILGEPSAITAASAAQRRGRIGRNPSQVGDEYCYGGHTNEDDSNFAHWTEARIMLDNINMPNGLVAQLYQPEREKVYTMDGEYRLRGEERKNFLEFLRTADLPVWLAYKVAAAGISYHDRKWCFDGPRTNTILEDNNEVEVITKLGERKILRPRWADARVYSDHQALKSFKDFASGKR

| SMILES | IC50 (Genome polyprotein [1]) | IC50 (Genome polyprotein [2]) | CC50 at 24 h [3] | inhibition at 12.5 µM (dengue virus type 2 [4]) | Activity (Huh-7) | inhibition (INH) (Trypsin [6]) | EC50 (Genome polyprotein [7]) | inhibition [8] | inhibition [9] | inhibition (INH) (Prothrombin) | Drug uptake [5] | Papp at 5 h, 200 µM [11] | R% [12] | Drug uptake [13] | inhibition [14] | other results |
| --- | --- | --- | --- | --- | --- | --- | --- | --- | --- | --- | --- | --- | --- | --- | --- | --- |
| N=C(N)NCCC[C@H](NC(=O)c1ccccc1)C(=O)N[C@@H](CCCCN)C(=O)N[C@@H](C(N)=O)c1ccc(OCc2ccccc2)cc1 | 0.68 µM | 3.9 µM | > 100 µM | 52.3% | Non-Toxic | Not Active | 16 µM | 40.9% | 86.7% | Not Active |  |  |  |  |  | Drug uptake ([5]; BLD = below limit of detection): Bld; EC50 (dengue virus type 2 [10]): 8.6 µM |
| O=C1NC(=O)C(c2ccccc2)(c2ccccc2)N1 [PHENYTOIN] |  |  |  |  |  |  |  |  |  |  | 149.6 µM | 6 ×10⁻⁶ cm/s | 17.4% | 23.4 µM |  |  |
| CCCCCC(=O)N[C@H](C(=O)NCc1ccc(CN)cc1)c1ccc(OCc2ccccc2)cc1.O=C(O)C(F)(F)F | 4.9 µM | 8.2 µM | 4.8 µM |  |  | Not Active |  |  | 84.8% | Not Active |  |  |  |  | 94.9% | Ki (Genome polyprotein [1]): 3.8 µM; inhibition [15]: Active |
| CCCCCC(=O)N[C@H](C(=O)NCc1ccc(C(=N)N)cc1)c1ccc(OCc2ccccc2)cc1.O=C(O)C(F)(F)F |  |  | > 50 µM |  |  |  |  | 49.1% | 39.4% | Not Active |  |  |  |  | 20.6% | IC50 (Trypsin [16]): 45 µM; inhibition at 0.25 h, 50 µM (Trypsin [6]): > 50% |
| N=C(N)Nc1ccc(CNC(=O)[C@@H](NC(=O)Cc2ccc(-c3ccccc3)cc2)c2ccc(OCc3c(Cl)cccc3Cl)cc2)cc1.O=C(O)C(F)(F)F | 0.54 µM | 1.2 µM | > 50 µM |  |  | Not Active | 39 µM | 31.7% | 101% | Not Active |  |  |  |  | 101% | Ki (Genome polyprotein [1]): 0.46 µM; Ki (Genome polyprotein [2]): 1 µM; Drug uptake ([5]; BLD = below limit of detection): Bld; inhibition [15]: Active; inhibition [17]: Active |
| CCCCCCC(=O)N[C@H](C(=O)NCc1ccc(NC(=N)N)cc1)c1ccc(OCc2ccccc2)cc1.O=C(O)C(F)(F)F | 6.8 µM | 17 µM | > 50 µM | 81% | Non-Toxic | Not Active | 0.52 µM | 71% | 101% | Not Active | 167.3 µM | 0.4 ×10⁻⁶ cm/s | 15.7% | 1.9 µM | 97.2% |  |
| N=C(N)Nc1ccc(CNC(=O)[C@@H](NC(=O)c2ccc(-c3ccccc3)cc2)c2ccc(OCc3ccccc3)cc2)cc1.O=C(O)C(F)(F)F | 1.8 µM | 7.4 µM | > 50 µM |  |  |  | 7.6 µM | 67% | 99.4% | Not Active |  |  |  |  | 101% | IC50 (Trypsin [16]): 31 µM; inhibition at 0.25 h, 50 µM (Trypsin [6]): > 50% |
| CCCCCC(=O)N[C@@H](C(=O)NCc1ccc(NC(=N)N)cc1)c1ccc(OCc2ccccc2)cc1.O=C(O)C(F)(F)F |  |  | > 50 µM |  |  |  | 9.9 µM | 54.9% | 34.2% | Not Active |  |  |  |  | 49.9% | IC50 (Trypsin [16]): 44 µM; inhibition at 0.25 h, 50 µM (Trypsin [6]): > 50% |
| NC(=O)N1c2ccccc2C=Cc2ccccc21 [CARBAMAZEPINE] |  |  |  |  |  |  |  |  |  |  | 171.6 µM | 8.1 ×10⁻⁶ cm/s | 2.3% | 35.7 µM |  |  |
| N=C(N)Nc1ccc(CNC(=O)[C@@H](NC(=O)c2ccc(OC3CCCCC3)cc2)c2ccc(OCc3ccccc3)cc2)cc1.O=C(O)C(F)(F)F | 5.9 µM | 8.3 µM | > 12.5 µM | 72.6% | Non-Toxic | Not Active | 2.2 µM | 70.4% | 99.7% | Not Active | 177.4 µM | 0.3 ×10⁻⁶ cm/s | 10.8% | 1.6 µM | 98.2% |  |
| Cn1c(=O)c2c(ncn2C)n(C)c1=O [CAFFEINE] |  |  |  |  |  |  |  |  |  |  | 159.5 µM | 7.7 ×10⁻⁶ cm/s | 9.6% | 31.9 µM |  |  |
| N=C(N)Nc1ccc(CNC(=O)[C@@H](NC(=O)c2ccc(Oc3ccccc3)cc2)c2ccc(OCc3ccccc3)cc2)cc1.O=C(O)C(F)(F)F | 4 µM | 6.2 µM | > 12.5 µM | 80.5% | Non-Toxic | Not Active | 3 µM | 68.5% | 101% | Not Active | 154.5 µM | 0.3 ×10⁻⁶ cm/s | 22.4% | 1.2 µM | 99.5% | EC50 (dengue virus type 2 [10]): 9.3 µM |
| N=C(N)Nc1ccc(CNC(=O)[C@@H](NC(=O)c2cccc(Oc3ccccc3)c2)c2ccc(OCc3ccccc3)cc2)cc1.O=C(O)C(F)(F)F | 4.9 µM | 6.1 µM | > 25 µM |  |  | Not Active | 7.3 µM | 67.5% | 99.8% | Not Active | 168.9 µM | 0.2 ×10⁻⁶ cm/s | 15.2% | 1.1 µM | 101% |  |
